Patent publication US9326973B2, “Hepatitis C virus inhibitors” (priority 2012, dated 2016)

test system: HCV replicon, genotype-1a variant with glutamine 30 changed to glutamate in the NS5A protein; assay: microbe, parasite or virus in culture; type: cell-based, HCV genotype 1a; conditions: HCV replicon genotype 1a Q30E (Q→E) variant; test compound titrated with an NS5A-targeting compound (BMS-790052 fixed at 200 nM); ranking of synergist activity
From the text: The NS5A synergistic inhibitory effect of test compounds can be determined using various amounts of an NS5A-targeting compound with titration of a second compound of interest. […] In one embodiment, the HCV genotype strain can be genotype 1a containing a change at amino acid 30 of the NS5A protein consisting of glutamine to glutamate. The test compound can be chosen from compounds listed above or from others present in the literature.

SMILES | Fold-Synergistic 1a (Q30E) [fold]
CN(C)C(=O)OC1(C(=O)N[C@H](c2nc(-c3ccc(-c4ccc(-c5c[nH]c([C@@H](NC(=O)C6(OC(=O)N(C)C)CC6)C(C)(C)C)n5)cc4)cc3)c[nH]2)C(C)(C)C)CC1 [Compound L-29] | >100
CC(C)(C)[C@H](NC(=O)C(F)(F)Sc1ccccc1)c1nc(-c2ccc(-c3ccc(-c4c[nH]c([C@@H](NC(=O)C(F)(F)Sc5ccccc5)C(C)(C)C)n4)cc3)cc2)c[nH]1 [Compound P-172] | >100
O=C(Cc1cccc2ccccc12)N1CCC[C@H]1c1ncc(-c2ccc(-c3ccc(-c4cnc([C@@H]5CCCN5C(=O)Cc5cccc6ccccc56)[nH]4)cc3)cc2)[nH]1 [Compound S-144] | >10
CC(C)(C)[C@H](NC(=O)C1CCCCC1c1ccccc1)c1nc(-c2ccc(-c3ccc(-c4c[nH]c([C@@H](NC(=O)C5CCCCC5c5ccccc5)C(C)(C)C)n4)cc3)cc2)c[nH]1 (stereo partly shown) [Compound S-269] | >100
CC(C)(C)OC(=O)N1CCCC[C@@H]1C(=O)N[C@H](c1nc(-c2ccc(-c3ccc(-c4c[nH]c([C@@H](NC(=O)[C@H]5CCCCN5C(=O)OC(C)(C)C)C(C)(C)C)n4)cc3)cc2)c[nH]1)C(C)(C)C [Compound L-16] | >100
CN1CCC(C(=O)N[C@H](c2nc(-c3ccc(-c4ccc(-c5c[nH]c([C@@H](NC(=O)C6CCN(C)CC6)C(C)(C)C)n5)cc4)cc3)c[nH]2)C(C)(C)C)CC1 [Compound S-268] | >10
CC1(C)CC(C(=O)N[C@H](c2nc(-c3ccc(-c4ccc(-c5c[nH]c([C@@H](NC(=O)C6CCOC(C)(C)C6)C(C)(C)C)n5)cc4)cc3)c[nH]2)C(C)(C)C)CCO1 (stereo partly shown) [Compound W-122] | >100
COC(=O)N(C)C1(C(=O)N[C@H](c2nc(-c3ccc(-c4ccc(-c5c[nH]c([C@@H](NC(=O)C6(N(C)C(=O)OC)CC6)C6(C)CC6)n5)cc4)cc3)c[nH]2)C2(C)CC2)CC1 [Compound L-30] | >100
O=C(C1CCCCC1)N1CCC[C@H]1c1ncc(-c2ccc(-c3ccc(-c4cnc([C@@H]5CCCN5C(=O)C5CCCCC5)[nH]4)cc3)cc2)[nH]1 [Compound S-167] | <10
CC(C)(C)[C@H](NC(=O)C(=O)N1CCC(F)CC1)c1nc(-c2ccc(-c3ccc(-c4c[nH]c([C@@H](NC(=O)C(=O)N5CCC(F)CC5)C(C)(C)C)n4)cc3)cc2)c[nH]1 [Compound W-26] | >100
COC(C)(C)C(=O)N[C@H](c1nc(-c2ccc(-c3ccc(-c4c[nH]c([C@@H](NC(=O)C(C)(C)OC)C5(C)CC5)n4)cc3)cc2)c[nH]1)C1(C)CC1 [Compound Y-63] | >100
CC(C)(C)[C@H](NC(=O)C1(C)CC1(F)F)c1nc(-c2ccc(-c3ccc(-c4c[nH]c([C@@H](NC(=O)C5(C)CC5(F)F)C(C)(C)C)n4)cc3)cc2)c[nH]1 (stereo partly drawn) [Compound L-58a] | >100
COC(=O)N1CCC[C@@]1(C)C(=O)N[C@H](c1nc(-c2ccc(-c3ccc(-c4c[nH]c([C@@H](NC(=O)[C@]5(C)CCCN5C(=O)OC)C(C)(C)C)n4)cc3)cc2)c[nH]1)C(C)(C)C [Compound L-23] | >100
CC(C)CC(=O)NC1(c2nc(-c3ccc(-c4ccc(-c5c[nH]c(C6(NC(=O)CC(C)C)CC6)n5)cc4)cc3)c[nH]2)CC1 [Compound N-21] | <10
O=C(CCC1CCCC1)N1CCC[C@H]1c1ncc(-c2ccc(-c3ccc(-c4cnc([C@@H]5CCCN5C(=O)CCC5CCCC5)[nH]4)cc3)cc2)[nH]1 [Compound S-166] | >10
Cc1c2c(nn1C)CCC(C(=O)N[C@H](c1nc(-c3ccc(-c4ccc(-c5c[nH]c([C@@H](NC(=O)C6CCc7nn(C)c(C)c7C6)C(C)(C)C)n5)cc4)cc3)c[nH]1)C(C)(C)C)C2 (stereo partly shown) [Compound S-278] | >100
CC(C)N(C(=O)OC1(C(=O)N[C@H](c2nc(-c3ccc(-c4ccc(-c5c[nH]c([C@@H](NC(=O)C6(OC(=O)N(C(C)C)C(C)C)CC6)C6(C)CC6)n5)cc4)cc3)c[nH]2)C2(C)CC2)CC1)C(C)C [Compound L-39] | >100
O=C([C@H]1CCCO1)N1CCC[C@H]1c1ncc(-c2ccc(-c3ccc(-c4cnc([C@@H]5CCCN5C(=O)[C@H]5CCCO5)[nH]4)cc3)cc2)[nH]1 [Compound S-111] | <10
CC(C)CC(=O)NC1(c2nc(-c3ccc(-c4ccc(-c5c[nH]c(C6(NC(=O)CC(C)C)Cc7ccccc7C6)n5)cc4)cc3)c[nH]2)Cc2ccccc2C1 [Compound N-19] | <10
COC(C)(C)C(=O)N[C@H](c1nc(-c2ccc(-c3ccc(-c4c[nH]c([C@@H](NC(=O)C(C)(C)OC)C(C)C)n4)c(F)c3)cc2)c[nH]1)C(C)C [Compound N-87] | >100

SMILES | Fold-Synergistic 1a (Q30E) [fold]
CC(C)(C)[C@H](NC(=O)C(=O)N1CCC(F)(F)C1)c1nc(-c2ccc(-c3ccc(-c4c[nH]c([C@@H](NC(=O)C(=O)N5CCC(F)(F)C5)C(C)(C)C)n4)cc3)cc2)c[nH]1 [Compound W-22] | >100
CC(C)[C@H](NC(=O)C(=O)N(CC(F)(F)F)C(C)C)c1nc(-c2ccc(-c3ccc(-c4c[nH]c([C@@H](NC(=O)C(=O)N(CC(F)(F)F)C(C)C)C(C)C)n4)cc3)cc2)c[nH]1 [Compound W-65] | >100
CC(C)(C)[C@H](NC(=O)C1CCC(F)(F)C1)c1nc(-c2ccc(-c3ccc(-c4c[nH]c([C@@H](NC(=O)C5CCC(F)(F)C5)C(C)(C)C)n4)cc3)cc2)c[nH]1 (stereo partly shown) [Compound N-111A] | >100
CN(CC(F)(F)F)C(C)(C)C(=O)N[C@H](c1nc(-c2ccc(-c3ccc(-c4c[nH]c([C@@H](NC(=O)C(C)(C)N(C)CC(F)(F)F)C(C)(C)C)n4)cc3)cc2)c[nH]1)C(C)(C)C [Compound L-62] | >100
CC(C)CC(=O)N[C@H](c1ncc(-c2ccc(C#Cc3ccc(-c4cnc([C@@H](NC(=O)CC(C)C)C(C)C)[nH]4)cc3)cc2)[nH]1)C(C)C [Compound N-6] | >10
CC(C)[C@H](NC(=O)c1cc(Cl)ccc1F)c1nc(-c2ccc(-c3ccc(-c4c[nH]c([C@@H](NC(=O)c5cc(Cl)ccc5F)C(C)C)n4)cc3F)cc2)c[nH]1 [Compound N-99] | >100
CC(C)(C)[C@H](NC(=O)C(F)(F)C1(O)CCC1)c1nc(-c2ccc(-c3ccc(-c4c[nH]c([C@@H](NC(=O)C(F)(F)C5(O)CCC5)C(C)(C)C)n4)cc3)cc2)c[nH]1 [Compound P-165] | >100
CC(C)(C)OC(=O)N1[C@@H]2CC[C@@H](C2)[C@H]1C(=O)N[C@H](c1nc(-c2ccc(-c3ccc(-c4c[nH]c([C@@H](NC(=O)[C@@H]5[C@H]6CC[C@H](C6)N5C(=O)OC(C)(C)C)C(C)(C)C)n4)cc3)cc2)c[nH]1)C(C)(C)C [Compound W-121] | >100
CC(C)(C(=O)NCC(F)(F)F)C(=O)N[C@H](c1nc(-c2ccc(-c3ccc(-c4c[nH]c([C@@H](NC(=O)C(C)(C)C(=O)NCC(F)(F)F)C(C)(C)C)n4)cc3)cc2)c[nH]1)C(C)(C)C [Compound W-139] | >100
O=C(Cc1ccc2ccccc2c1)N1CCC[C@H]1c1ncc(-c2ccc(-c3ccc(-c4cnc([C@@H]5CCCN5C(=O)Cc5ccc6ccccc6c5)[nH]4)cc3)cc2)[nH]1 [Compound S-145] | >10
O=C(CC(c1ccccc1)c1ccccc1)N1CCC[C@H]1c1ncc(-c2ccc(-c3ccc(-c4cnc([C@@H]5CCCN5C(=O)CC(c5ccccc5)c5ccccc5)[nH]4)cc3)cc2)[nH]1 [Compound S-143] | >10
CC(C)CC(=O)NC1(c2nc(-c3ccc(-c4ccc(-c5c[nH]c(C6(NC(=O)CC(C)C)CCCC6)n5)cc4)cc3)c[nH]2)CCCC1 [Compound N-12] | <10
CC(C)(C)[C@H](NC(=O)C1CCCOC1)c1nc(-c2ccc(-c3ccc(-c4c[nH]c([C@@H](NC(=O)C5CCCOC5)C(C)(C)C)n4)cc3)cc2)c[nH]1 (stereo partly shown) [Compound W-131] | >100
COC(=O)C1(C(=O)N[C@H](c2nc(-c3ccc(-c4ccc(-c5c[nH]c([C@@H](NC(=O)C6(C(=O)OC)CCCCC6)C(C)(C)C)n5)cc4)cc3)c[nH]2)C(C)(C)C)CCCCC1 [Compound S-273] | >100
CCN(CC1CC1)C(=O)C(C)(C)C(=O)N[C@H](c1nc(-c2ccc(-c3ccc(-c4c[nH]c([C@@H](NC(=O)C(C)(C)C(=O)N(CC)CC5CC5)C(C)(C)C)n4)cc3)cc2)c[nH]1)C(C)(C)C [Compound W-156] | >100
CC(C)(C)[C@H](NC(=O)C1(N2CCOCC2)CC1)c1nc(-c2ccc(-c3ccc(-c4c[nH]c([C@@H](NC(=O)C5(N6CCOCC6)CC5)C(C)(C)C)n4)cc3)cc2)c[nH]1 [Compound L-31] | >100
CC1([C@H](NC(=O)C(C)(C)C2(O)CCC(F)(F)CC2)c2nc(-c3ccc(-c4ccc(-c5c[nH]c([C@@H](NC(=O)C(C)(C)C6(O)CCC(F)(F)CC6)C6(C)CC6)n5)cc4)cc3)c[nH]2)CC1 [Compound P-144] | >100
CC[C@H](NC(=O)[C@@H](NC(=O)OC)C(C)C)c1nc(-c2ccc(-c3ccc(-c4c[nH]c([C@H](CC)NC(=O)[C@@H](NC(=O)OC)C(C)C)n4)cc3)cc2)c[nH]1 [Compound N-41] | >10
CC(C)(C)[C@H](NC(=O)CC1CCOC2(CC2)C1)c1nc(-c2ccc(-c3ccc(-c4c[nH]c([C@@H](NC(=O)CC5CCOC6(CC6)C5)C(C)(C)C)n4)cc3)cc2)c[nH]1 (stereo partly drawn) [Compound L-75] | >100
CC(C)(C)OC(=O)N1CC2(CC2)C[C@H]1C(=O)N[C@H](c1nc(-c2ccc(-c3ccc(-c4c[nH]c([C@@H](NC(=O)[C@@H]5CC6(CC6)CN5C(=O)OC(C)(C)C)C(C)(C)C)n4)cc3)cc2)c[nH]1)C(C)(C)C [Compound W-94] | >100
